This passage reports IC50 results from US4820834A, “Benzodiazepine analogs” (priority 1987, dated 1989).

The structures appear in SMILES notation. Where two headings read alike, the source gives them in different places.

One test deals with T1, CCK receptor (pancreas) (Rattus norvegicus, UniProt P30551).
T1 construct: The whole pancreas was dissected free of fat tissue and was homogenized; from tissue; host or cells: rat pancreas membranes (Sprague-Dawley)
T1 sequence (P30551 1-444): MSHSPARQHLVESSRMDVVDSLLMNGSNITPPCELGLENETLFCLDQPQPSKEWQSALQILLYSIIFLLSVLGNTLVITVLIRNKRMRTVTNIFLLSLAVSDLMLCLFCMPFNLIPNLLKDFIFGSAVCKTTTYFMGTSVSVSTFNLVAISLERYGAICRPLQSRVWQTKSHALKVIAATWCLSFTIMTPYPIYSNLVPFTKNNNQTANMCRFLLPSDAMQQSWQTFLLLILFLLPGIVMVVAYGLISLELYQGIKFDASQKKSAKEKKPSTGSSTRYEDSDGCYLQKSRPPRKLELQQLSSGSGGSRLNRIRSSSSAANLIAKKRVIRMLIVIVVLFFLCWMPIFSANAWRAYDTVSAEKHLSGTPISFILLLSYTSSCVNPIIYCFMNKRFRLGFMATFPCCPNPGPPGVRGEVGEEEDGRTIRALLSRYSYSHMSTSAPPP
The test is described as follows: CCK Receptor Binding (Pancreas): inhibition of ^125 I-CCK-33 binding. Further details: species or system Male Sprague-Dawley rats. To be noted: IC50 ^125 I-CCK Pancreas, rat pancreas membranes, ^125 I-CCK-33, 37° C., 30 minutes. As to the method:
1. CCK Receptor Binding (Pancreas)
CCK-33 was radiolabeled with ^125 I-Bolton Hunter reagent (2000 Ci/mmole) as described by Sankara et al. (J. Biol. Chem. 254: 9349-9351, 1979). Receptor binding was performed according to Innis and Snyder (Proc. Natl. Acad. Sci. 77: 6917-6921, 1980) with the minor modification of adding the additional protease inhibitors, phenylmethane sulfonyl fluoride and o-phenanthroline.
Male Sprague-Dawley rats (200-350 g) were sacrificed by decapitation. The whole pancreas was dissected free of fat tissue and was homogenized in 20 volumes of ice-cold 50 mM, Tris HCl (pH 7.7 at 25° C.) with a Brinkmann Polytron PT 10. The homogenates were centrifuged at 48,000 g for 10 min. Pellets were resuspended in Tris Buffer, centrifuged as above and resuspended in 200 volumes of binding assay buffer (50 mM Tris HCl, pH 7.7 at 25° C., 5 mM dithiothrietol, 0.1 mM bacitracin, 1.2 mM phenylmethane sulfonyl fluoride and 0.5 mM o-phenanthroline). […] All assays were run in duplicate or triplicate. The reaction mixtures were incubated at 37° C. for 30 minutes and centrifuged in a Beckman Microfuge (4 minutes) immediately after adding 1 ml of ice-cold incubation buffer. The supernatant was aspirated and discarded, pellets were counted with a Beckman gamma 5000. For Scatchard analysis (Ann. N.Y. Acad. Sci. 51: 660, 1949), ^125 I-CCK-33 was progressively diluted with increasing concentrations of CCK-33.

In test [1] the target is T2, CCK receptor (brain, cerebral cortex) (Cavia porcellus, UniProt H0VZC5).
T2 construct: Cerebral cortex was dissected and used as a receptor source; from tissue; host or cells: guinea pig cerebral cortex membranes (male Hartley)
T2 sequence (H0VZC5 1-426): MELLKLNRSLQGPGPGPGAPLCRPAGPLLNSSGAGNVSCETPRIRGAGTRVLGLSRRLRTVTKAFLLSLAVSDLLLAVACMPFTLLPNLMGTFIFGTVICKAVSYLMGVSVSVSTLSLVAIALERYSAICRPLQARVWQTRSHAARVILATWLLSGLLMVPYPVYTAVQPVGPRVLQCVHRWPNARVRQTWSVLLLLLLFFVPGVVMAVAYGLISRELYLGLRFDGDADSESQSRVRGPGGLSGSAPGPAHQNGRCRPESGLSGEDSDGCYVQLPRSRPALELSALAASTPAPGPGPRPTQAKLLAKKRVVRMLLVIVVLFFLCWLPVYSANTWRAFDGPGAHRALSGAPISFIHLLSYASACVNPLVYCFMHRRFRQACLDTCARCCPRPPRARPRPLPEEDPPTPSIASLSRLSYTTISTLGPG
The test is described as follows: biochemical. It is filed as binding, Male Hartley guinea pigs. To be noted: guinea pig cerebral cortex, ^125 I-CCK-33, 25° C., 2 hours. In short, it runs like this: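 Guinea pig cerebral cortex homogenate as receptor source, with radiolabeled CCK-33 in HEPES buffer containing MgCl2, bacitracin, EGTA and 0.4% BSA. Incubation 2 h at 25°C; bound ligand pelleted by centrifugation and gamma-counted.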

In test [2] the target is T3, Gastrin receptor (gastric glands) (Cavia porcellus, UniProt H0VZC5).
T3 construct: The washed guinea pig gastric glands prepared as above were resuspended; from tissue; host or cells: guinea pig gastric mucosal glands (male Hartley)
T3 sequence (H0VZC5 1-426): T2 sequence (H0VZC5 1-426)
The test is described as follows: Gastrin Receptor Binding in Guinea Pig Gastric Glands. Further details: species or system guinea pig (male Hartley). To be noted: 25° C., 30 minutes.

The mark [3] stands for this setting: IC50 ^125 I-Gastrin Gastric Glands.
The mark [4] stands for this setting: read-out: IC50 ^125 I-CCK Brain.
[5] abbreviates: ^125 I-gastrin, read-out: IC50 ^125 I-Gastrin Gastric Glands.

Regarding `O=C1Nc2ccccc2C(c2ccccc2F)=NC1c1ccsc1` (racemic) [Example 20, 1,3-Dihydro-5-(2-fluorophenyl)-3(RS)-(3-thienyl)-2H-1,4-benzodiazepin-2-one], the half-inhibitory concentration (IC50) at CCK receptor (pancreas) was over 100 µM. In turn, `O=C1Nc2ccccc2C(c2ccccc2F)=NC1Cc1c[nH]c2ccc(F)cc12` (racemic) [Example 59, 1,3-Dihydro-3(RS)-[3'-(5'-fluoroindolyl)methyl]-5-o-fluorophenyl-2H-1,4-benzpdiazepin-2-one] registered an IC50 on CCK receptor (pancreas) of 1.4 µM.

Take `O=C(NC1N=C(c2ccccc2)c2ccccc2NC1=O)c1cccc2ccccc12` (racemic) [Example 166, 1,3-Dihydro-3(RS)-(1-naphthoylamino)-5-phenyl-2H-1,4-benzodiazepin-2-one]: the IC50 was found to be 12 µM in test [1] (IC50 ^125 I-CCK Brain) and 29 µM in test [2] (setting [3]).

On to `O=C(NC1N=C(c2ccccc2F)c2ccccc2NC1=O)c1ccccc1` (racemic) [Example 173, 1,3-Dihydro-5-(2-fluorophenyl)-3(RS)-phenylcarbonylamino-2H-1,4-benzodiazepin-2-one], for which the concentration for half-maximal inhibition (IC50) in test [1] (IC50 ^125 I-CCK Brain) was over 40 µM; in test [2] (setting [3]) it was 28 µM. Take `O=C(NC1N=C(c2ccccc2F)c2ccccc2NC1=O)c1ccccc1Cl` (racemic) [Example 174, 1,3-Dihydro-5-(2-fluorophenyl)-3(RS)-(2-chlorophenyl)carbonylamino-2H-1,4-benzodiazepin-2-one]: the IC50 in test [1] (IC50 ^125 I-CCK Brain) is over 40 µM; in test [2] (setting [3]), 18 µM. As for `O=C(NC1N=C(c2ccccc2F)c2ccccc2N(C(=O)c2ccc(Cl)cc2)C1=O)c1ccc(Cl)cc1` (racemic) [Example 177, 1-(4-Chlorophenyl)carbonyl-1,3-dihydro-5-(2-fluorophenyl)-3(RS)-(4-chlorophenyl)carbonylamino-2H-1,4-benzodiazepin-2-one], the IC50 turned out to be 3.7 µM in test [1] (IC50 ^125 I-CCK Brain) and 0.55 µM in test [2] (setting [3]). The like results for `O=C(Nc1ccc(Cl)cc1)NC1N=C(c2ccccc2F)c2ccccc2NC1=O` (racemic) [Example 182, 1,3-Dihydro-3(RS)-(4-chlorophenyl)aminocarbonylamino-5-(2-fluorophenyl)-2H-1,4-benzodiazepin-2-one] were, in that order, 0.3 µM and 0.26 µM.

With `N[C@@H](Cc1ccccc1)C(=O)NC1N=C(c2ccccc2)c2ccccc2NC1=O` (single isomer, unassigned) [Example 186], the 50% inhibitory concentration (IC50) in test [1] (setting [4]) and in test [2] (setting [5]) was over 100 µM throughout. Regarding `CCN(CC)C(=O)C(C)N1C(=O)C(NC(=O)Nc2ccc(Cl)cc2)N=C(c2ccccc2)c2ccccc21` (single isomer, unassigned) [Example 249, 3-((((4-Chlorophenyl)amino)carbonyl)amino)-N,N,-diethyl-2,3-dihydro-alpha-methyl-2-oxo-5-phenyl-1H-1,4-benzodiazepine-1-acetamide], the IC50 in test [1] (setting [4]) was found to be 0.022 µM; in test [2] (setting [5]) it was 0.012 µM.

The molecule `O=C1Nc2ccccc2C(c2ccccc2F)=N[C@@H]1Cc1c[nH]c2ccccc12` [2 & 3] gave an IC50 at CCK receptor (pancreas) of 0.4 µM. Still for that read-out and setting: the figure for `CN1C(=O)[C@@H](Cc2cn(C)c3ccccc23)N=C(c2ccccc2F)c2ccccc21` [4a & 44] is 0.36 µM; for `CN1C(=O)/C(=C\c2ccsc2)N=C(c2ccccc2)c2ccccc21` [95 E] it is 25 µM. Take `CN1C(=O)[C@@H](NC(=O)[C@@H](N)Cc2ccccc2)N=C(c2ccccc2)c2ccccc21` [Example 84a, 3(S)-(2(S)-amino-3-phenylpropanoylamino)-1,3-dihydro-1-methyl-5-phenyl-2H-1,4-benzodiazepin-2-one]: the concentration for half-maximal inhibition (IC50) in test [1] (IC50 ^125 I-CCK Brain) and in test [2] (setting [5]) was over 40 µM each time. For `CN1C(=O)[C@H](NC(=O)[C@@H](N)Cc2ccccc2)N=C(c2ccccc2)c2ccccc21` [Example 84b, 3(R)-(2(S)-amino-3-phenylpropanoylamino)-1,3-dihydro-1-methyl-5-phenyl-2H-1,4-benzodiazepin-2-one], the 50% inhibitory concentration (IC50) is over 100 µM in test [1] (IC50 ^125 I-CCK Brain) and 55 µM in test [2] (setting [5]). Take `CN1C(=O)[C@H](N)N=C(c2ccccc2)c2ccccc21` [Example 85b, 3(R)-(+)-3-amino-1,3-dihydro-1-methyl-5-phenyl-2H-1,4-benzodiazepin-2-one]: the IC50 in test [1] (IC50 ^125 I-CCK Brain) and in test [2] (setting [3]) was over 100 µM each time. Turning to `CN1C(=O)[C@@H](NC(=O)c2ccccc2Br)N=C(c2ccccc2F)c2ccccc21` [Example 161, 3(S)-(-)-3-(2-Bromobenzoylamino)-1,3-dihydro-5-(2-fluorophenyl)-1-methyl-2H-1,4-benzodiazepin-2-one], the figures for the IC50 in test [1] (IC50 ^125 I-CCK Brain) and in test [2] (setting [5]) were 70 µM and 19 µM, respectively. As to `CN1C(=O)[C@@H](NC(=O)c2cccc(I)c2)N=C(c2ccccc2F)c2ccccc21` [Example 167, 3(S)-(+)-1,3-Dihydro-5-(2-fluorophenyl)-3-(3-iodobenzoylamino)-1-methyl-2H-1,4-benzodiazepin-2-one], the IC50 in test [1] (setting [4]) came to 1.7 µM; in test [2] (setting [5]), 0.39 µM. Regarding `CN1C(=O)[C@H](NC(=O)c2ccccc2Br)N=C(c2ccccc2F)c2ccccc21` [Example 171, 3(R)-(+)-3-(2-Bromobenzoylamino)-1,3-dihydro-5-(2-fluorophenyl)-1-methyl-2H-1,4-benzodiazepin-2-one], the IC50 in test [1] (IC50 ^125 I-CCK Brain) is 5.6 µM; in test [2] (setting [5]), 5.8 µM. Turning to `CCOC(=O)CN1C(=O)C(NC(=O)c2ccccc2Cl)N=C(c2ccccc2F)c2ccccc21` (centres unmarked) [Example 188, 3-(2'-Chlorobenzoylamino)-1-ethoxycarbonylmethyl-5-(2'-fluorophenyl)-2H-1,4-benzodiazepine-2-one], the half-inhibitory concentration (IC50) amounted to 3.2 µM in test [1] (IC50 ^125 I-CCK Brain) and 1.3 µM in test [2] (setting [3]).

Take `CN1C(=O)[C@@H](NC(=O)C=Cc2ccccc2)N=C(c2ccccc2)c2ccccc21` [Example 192, (S)-N-(2,3-Dihydro-1-methyl-2-oxo-5-phenyl-1H-1,4-benzodiazeoin-3-yl)-3-phenyl-2-propenamide]: the values for the half-maximal inhibitory concentration (IC50) in test [1] (setting [4]) and in test [2] (setting [5]) were 0.64 µM and 0.18 µM, respectively. `CN1C(=O)[C@H](NC(=O)C2CCCCC2)N=C(c2ccccc2)c2ccccc21` [Example 198, (R)-N-(2,3-Dihydro-1-methyl-2-oxo-5-phenyl-1H-1,4-benzodiazepin-3-yl)-cyclohexanecarboxamide]: the 50% inhibitory concentration (IC50) was determined as 18 µM in test [1] (setting [4]) and 1.5 µM in test [2] (setting [5]). Take `CN1C(=O)[C@@H](NC(=O)[C@@H](Cc2ccccc2)NC(=O)OC(C)(C)C)N=C(c2ccccc2F)c2ccccc21` [Example 232, (S-(R*,S*))-(2-((5-(2-Fluorophenyl)-2,3-dihydro-1-methyl-2-oxo-1H-1,4-benzodiazepin-3-yl)amino)-2-oxo-1-(phenylmethyl)ethyl)-carbamic acid 1,1-dimethylethyl ester]: the 50% inhibitory concentration (IC50) came out at 1 µM in test [1] (setting [4]) and 1.2 µM in test [2] (setting [5]). On the same counts, the results for `CN1C(=O)[C@@H](NC(=O)c2ccccc2I)N=C(c2ccccc2)c2ccccc21` [Example 283, (S)-N-(2,3-Dihydro-1-methyl-2-oxo-5-phenyl-1H-1,4-benzodiazepin-3-yl)-2-iodobenzamide] are 71 µM and 66 µM.
